Columns and labels:
[1] = system: swine adipose tissue; assay: Inhibition of lipogenesis (lipid synthesis from glucose-U-14C) in slices of swine adipose tissue in vitro; type: cell-based; conditions: Sus scrofa, 100 micrograms per milliliter, 2 hours at 37° C, 5% DMSO, read-out: Percent Inhibition of lipogenesis (lipid synthesis) compared to control
From the text: The manner in which they cause this effect is not known with certainty; it is believed that they interfere with the synthesis of fatty acids in the tissues. Their effectiveness for this purpose has been ascertained in one series of tests by immersing samples of swine adipose tissue in a liquid medium containing radioactive glucose and the test chemical, for a period of time, then isolating the lipid from the treated tissue and determining the up-take of the radioactive carbon by means of scintillation counting techniques. These tests were conducted in swine adipose tissue because in swine, the primary site of lipogenesis--i.e., fatty acid synthesis--appears to be adipose tissue.
Described in more detail, the tests were conducted according to the following general procedure:
150 Milligrams of slices of swine adipose tissue were incubated at 37° C for 2 hours with shaking in 3 milliliters of Krebs-Ringer bicarbonate solution containing one half the normal calcium ion concentration, 60 micromoles of glucose, 0.5 micro-Curie of glucose-U^14 C, 300 microunits of insulin, and 5% dimethyl sulfoxide (DMSO). The test compounds were added as suspensions or solutions in DMSO and were present at a concentration of 100 micrograms per milliliter of the incubation mixture.
The incubation was terminated by addition of 0.25 milliliter of 1 N sulfuric acid. The resulting mixture was extracted with a total of 25 milliliters of chloroform:methanol (2:1, v/v). The extracts were washed according to Folch et al. (J. Biol. Chem., 226, 497-509, (1957)), air dried, and counted in a liquid scintillation counter with 15 milliliters of counting fluid (two parts toluene containing 0.4% w/v New England Nuclear Omnifluor; 1 part Triton X-100. The tests were conducted in triplicate and were accompanied by control tests in which all ingredients,proportions and conditions were the same except that no test compound was included. From the data obtained were calculated the percent inhibition of lipid synthesis by the test compound in each case. The data obtained from the tests are set out in Table 1, as the percent inhibition of lipogenesis compared to the results obtained in the control tests wherein only the test compound was omitted.

[2] = system: swine; assay: In vivo test in young, growing pigs fed Compound 1; lipogenesis in adipose tissue biopsy slices; conditions: in feed, approximately 50 mg/kg body weight per day for seven days
Description: The effect of compound 1 on inhibition of lipogenesis in swine was confirmed by an in vivo test in which Compound 1 was included in the feed given to young, growing pigs for seven days, at a dosage of approximately 50 milligrams of Compound 1 per kilogram of the pig's body weight per day. Adipose tissue biopsy samples were taken at days 0, 6, 7 and 13 (one week off the drug) and the effect of the test compound on lipogenesis was determined using tissue slices prepared from the biopsy samples, by the procedure used in the in vitro tests.

[3] = system: whole epididymal fat pads; assay: Inhibition of incorporation of acetate-1-14C into long chain fatty acids in rat epididymal fat pads; type: cell-based, Sprague-Dawley rats; conditions: for inhibition at 100 µM: 1 h, 10^-4 M, 60 minutes, acetate-1-14C, read-out: Percent Inhibition of incorporation of acetate into long chain fatty acids
Description: The effect of Compounds 1, 15, 19, 20, 21, 22 and 33 on rats was determined by a modification of the method of D. D. Feller, J. Biol. Chem., 206, 171 (1954): whole epididymal fat pads from 110-150 gram Sprague-Dawley rats were incubated in 4 milliliters of Krebs-Ringer bicarbonate buffer for 30 minutes in an atmosphere of 95% O2 -5% CO2. At the end of the 30 minute period 1 milliliter of Krebs-Ringer bicarbonate buffer containing 8.2 micromoles of acetate (0.1 microcuries of acetate-1-^14 C), 55.0 micromoles of glucose and 50.0 micromoles of succinic acid was added to the incubating mixture and the incubation was continued for 60 minutes more. Test compounds were dissolved in dimethyl sulfoxide (DMSO) and added to the incubating mixture with the fat pad. […] The concentration of the test compound in the liquid medium was 10^-4 M. The incubation was carried out with paired fat pads; the contralateral fat pad from the same rat served as the untreated control.
After incubation, the fat pads were washed in two 5 milliliter aliquots of normal saline and extracted twice with 20 milliliters of chloroform:methanol (2:1) by vigorous shaking for 60 minutes. The extracts were combined and brought to volume with fresh organic solvent in a 50 milliliter volumetric flask containing 1 milliliter of 3N hydrochloric acid. A 5 milliliter aliquot of this mixture was transferred into a 20 milliliter scintillator vial and evaporated to dryness (50° C) to remove traces of acetic acid. To the vials were added 17 ml of scintillator solution consisting of 0.3% diphenyloxazole and 0.01% of 1,4-bis(2,5-phenyloxazolyl)benzene in a solvent of 23% ethanol in toluene. Radioactivity was measured by liquid scintillation counting.
Table II indicates the percent inhibition of incorporation of the acetate into long chain fatty acids--a measure of inhibition of lipogenesis.

[4] = system: rats; assay: Rats fed Compound 1 in the diet; lipogenesis by weighing fat pads; type: in vivo; conditions: Compound 1 in diet, compared to control rats

Compound | inhibition at 100 µg/mL [1] | inhibition at 100 µM [3] | further results
OCCNc1nc(N2CCOCC2)nc(C(Cl)(Cl)Cl)n1 [Compound 1] | 63% | 57% | symptom of toxicity [2]: No symptom of toxicity due to the test compound was noted; effect on lipogenesis in adipose tissue biopsy samples ([2]; day 13 (one week off the drug)): significantly reduced lipogenesis; inhibition of lipogenesis, by weighing fat pads on sacrifice [4]: lipogenesis had been inhibited to a significant extent
OCCNc1nc(N2CCNCC2)nc(C(Cl)(Cl)Cl)n1 [Compound 21] | – | 65% | –
CC(=O)N1CCN(c2nc(NCC(C)O)nc(C(Cl)(Cl)Cl)n2)CC1 (stereo not shown) [Compound 11] | 72% | – | –
CC(O)CNc1nc(N2CCN(C(=O)CCC(=O)O)CC2)nc(C(Cl)(Cl)Cl)n1 (stereo not shown) [Compound 13] | 21% | – | inhibition of acetate incorporation (in words) ([3]; same procedure as Table II): not to inhibit acetate incorporation
CCNc1nc(N2CCCCC2)nc(C(Cl)(Cl)Cl)n1 [Compound 33] | – | 31% | –
O=C(NCCO)N1CCN(c2nc(NCCO)nc(C(Cl)(Cl)Cl)n2)CC1 [Compound 19] | 75% | 44% | –
CN1CCN(c2nc(NCCO)nc(C(Cl)(Cl)Cl)n2)CC1 [Compound 20] | 27% | 56% | –
CC(O)CNc1nc(N2CCNCC2)nc(C(Cl)(Cl)Cl)n1 (stereo not shown) [Compound 22] | – | 30% | –
OCCCNc1nc(N2CCOCC2)nc(C(Cl)(Cl)Cl)n1 [Compound 2] | 59% | – | –
OCCNc1nc(N2CCCC2)nc(C(Cl)(Cl)Cl)n1 [Compound 18] | 63% | – | –
CN(CCO)c1nc(NCCO)nc(C(Cl)(Cl)Cl)n1 [Compound 8] | 58% | – | –
COC(=O)CCC(=O)OCCNc1nc(N2CCOCC2)nc(C(Cl)(Cl)Cl)n1 [Compound 10] | 43% | – | –
CC(=O)NCCNc1nc(N2CCOCC2)nc(C(Cl)(Cl)Cl)n1 [Compound 14] | 66% | – | –
CN(C)C(=O)OCCNc1nc(N2CCOCC2)nc(C(Cl)(Cl)Cl)n1 [Compound 9] | 65% | – | –
CCNc1nc(NCCC(=O)N2CCOCC2)nc(C(Cl)(Cl)Cl)n1 [Compound 16] | 38% | – | –
O=C(O)CCNc1nc(N2CCOCC2)nc(C(Cl)(Cl)Cl)n1 [Compound 15] | 44% | 29% | –
CC(O)CNc1nc(N2CCOCC2)nc(C(Cl)(Cl)Cl)n1 (stereo not shown) [Compound 4] | 44% | – | –
CC(=O)OCCNc1nc(N2CCOCC2)nc(C(Cl)(Cl)Cl)n1 [Compound 3] | 33% | – | –
COCCCNc1nc(NCCO)nc(C(Cl)(Cl)Cl)n1 [Compound 5] | 44% | – | –
CC(O)CNc1nc(N2CCN(C(=O)Nc3ccccc3)CC2)nc(C(Cl)(Cl)Cl)n1 (stereo not shown) [Compound 12] | 29% | – | –
CC(C)(CO)Nc1nc(NCCCN2CCOCC2)nc(C(Cl)(Cl)Cl)n1 [Compound 17] | 43% | – | –
CN(CCO)c1nc(N2CCOCC2)nc(C(Cl)(Cl)Cl)n1 [Compound 7] | 32% | – | –
CC(C)OCCCNc1nc(N(CCO)CCO)nc(C(Cl)(Cl)Cl)n1 [Compound 6] | 62% | – | –

From patent US4098891A, “Certain s-triazines as lipogenesis inhibitors” (Shell Oil Company, priority 1977, dated 1978)
